In patent publication US7741325B2, “Benzo[b]chromeno-naphthyridin-7-one and pyrano[2′,3′:7,8]quino[2,3-b]quinoxalin-7-one compounds” (priority 2004, dated 2010):
pIC50: −log10 of the molar value.

Key:
[1] = test system: KB-3-1; assay: In vitro cytotoxicity, tetrazolium microculture assay, KB-3-1; assay type: cell-based; conditions: 96 h; KB-3-1 human epidermoid carcinoma, incubated for 4 days; read-out: IC50, the concentration of cytotoxic compound that inhibits the proliferation of the treated cells by 50%
Experimental: (§1) Two cell lines were used: • 1 murine leukaemia, L1210, • 1 human epidermoid carcinoma: KB-3-1
(§2) The cells are cultured in RPMI 1640 complete culture medium comprising 10% fcetal calf serum, 2 mM glutamine, 50 units/ml of penicillin, 50 μg/ml of streptomycin and 10 mM Hepes, pH 7.4. The cells are distributed on microplates and are exposed to the cytotoxic compounds. The cells are then incubated for 2 days (L1210) or 4 days (KB-3-1) in an incubator at 37° C. in the presence of 5% CO2. The number of viable cells is then quantified by a colorimetric assay, the tetrazolium microculture assay (Cancer Res. 1987, 47, 939-942).
(§3) The results are expressed as IC50, the concentration of cytotoxic compound that inhibits the proliferation of the treated cells by 50%.

[2] = test system: L1210; assay: In vitro cytotoxicity, tetrazolium microculture assay, L1210; assay type: cell-based; conditions: Mus musculus, 48 h; L1210 murine leukaemia, incubated for 2 days; read-out: IC50, the concentration of cytotoxic compound that inhibits the proliferation of the treated cells by 50%
Experimental: as §1, §2, §3

Structure (SMILES)	melting point [°C]	pIC50 [1]	pIC50 [2]
COc1cc2c(c3c1c(=O)c1cc4ccccc4nc1n3C)[C@@H](OC(C)=O)[C@@H](OC(C)=O)C(C)(C)O2 (racemic) [Example 4, (±)-cis-1,2-Diacetoxy-6methoxy-3,3,14-trimethyl-1,2,3,14-tetrahydro-7H-benzo[b]chromeno[6,5-g][1,8]naphthyridin-7-one]	244	7.43	6.49
Cn1c2nc3ccccc3cc2c(=O)c2c(O)cc3c(c21)C=CC(C)(C)O3 [Example 1, 6-Hydroxy-3,3,14-trimethyl-3,14-dihydro-7H-benzo-[b]chromeno-[6,5-g][1,8]naphthyridin-7-one]	278		
COc1cc2c(c3c1c(=O)c1cc4ccccc4nc1n3C)C=CC(C)(C)O2 [Example 2, 6-Methoxy-3,3,14-trimethyl-3,14-dihydro-7H-benzo[b]chromeno-[6,5-g][1,8]naphthyridin-7-one]	270		

Further lines, with some results ahead:

melting point [°C]	Structure (SMILES)	pIC50 [1]	pIC50 [2]
298	COc1cc2c(c3c1c(=O)c1cc4ccccc4nc1n3C)[C@@H](O)[C@@H](O)C(C)(C)O2 (racemic) [Example 3, (±)-cis-1,2-Dihydroxy-6-methoxy-3,3,14-trimethyl-1,2,3,14-tetrahydro-7H-benzo[b]chromeno[6,5-g][1,8]naphthyridin-7-one]		
234	COc1cc2c(c3c1c(=O)c1cc4ccccc4nc1n3C)[C@H]1OC(=O)O[C@H]1C(C)(C)O2 (racemic) [Example 5, (±)-cis-7-Methoxy-4,4,15-trimethyl-15,15c-dihydro-4H-benzo[b][1,3]-dioxolo[4′,5′:3,4]chromeno[6,5-g][1,8]naphthyridin-2,8[3aH]-dione]		
